Ends that are not written are not given here.
Tested on: platelets
Assay: Activation of platelets by plasma protein fragment
Format: cell-based

## HHLGGAKQAGDV
  ability to activate platelets: able to activate platelets
